Experimental data taken from PMC10447463, “Data-mining unveils structure–property–activity correlation of viral infectivity enhancing self-assembling peptides” (Nature Communications, 2023).

Tests used:
[1] = tested on: HIV-1 infection of TZM-bl cells; assay: HIV-1 infectivity enhancement assay, β-galactosidase luminescence; type: cell-based; details: for Absolute Infectivity / RLU /s (Feb2021): figures match the 1.3 µM column; for Log10 Inf. rel. to EF-C: log10 of HIV-1 infection of TZM-bl cells relative to EF-C, Fig S15 source data, asymmetric std dev errors; for Log10 Infection Rel EF-C: log10 of infection relative to EF-C
[2] = Turbidity, derived count rate of scattered light; type: physicochemical; details: for Count Rate / kcps: derived count rate of scattered light at 633 nm, 173°, from zeta-potential measurement, 0.1 mg/mL in 1 mM KCl after 1 d at 1 mg/mL in PBS, turbidity / microscopic aggregation, mean of triplicate; for Log Count Rate: log of derived count rate
Outline: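 Samples: 1 mg/mL in PBS pH 7.4 (from DMSO), 1 d at RT, then diluted in 1 mM KCl immediately before measurement. Triplicates, two independent runs averaged.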

[3] = Feb2021, infectivity relative to virus only
[4] = Feb2021, log10 of infectivity relative to EF-C
[5] = Feb2021, n-fold infectivity relative to EF-C
[6] = Feb2021 run, infectivity n-fold relative to virus alone
[7] = Feb2021 run, log10 of infectivity relative to EF-C
[8] = Feb2021 run, n-fold infectivity relative to EF-C
[9] = infectivity class (low / medium / high) of each library peptide, main list in c1-c6, same classes repeated in sub-lists of sequences containing the hydrophobicity/charge patterns P+,H0,P+,H0,P0,H0,P0, P+,H0,P0,H0,P0,H0,P0, P+,H0,P0,H0
[10] = derived count rate of scattered light
[11] = derived count rate of scattered light, mean, std deviation in separate column
[12] = n-fold infection vs virus only, relative to that of EF-C, 1.3 µM peptide
[13] = infectivity class (low / medium / high) of the peptide in the sequence-pattern analysis, Fig. S22-A4, class limits not given
[14] = log10 of derived count rate of scattered light, Figure 6C
[15] = logarithm of count rate in kcps
[16] = infectivity enhancement relative to EF-C (=1), Feb2021 run
[17] = infectivity n-fold relative to virus only, Feb2021 run
[18] = log10 of infectivity relative to EF-C, Feb2021 run

Substance: KIKIQIW [TM69]
- Absolute Infectivity / RLU /s (Feb2021) ([1]; Feb2021): 4280 RLU /s
- n-fold to virus (Feb2021) [1, 3]: 5.89
- Log10 of Rel to EFC (Feb2021) [1, 4]: -0.8533
- Rel-to EFC (Feb-2021) [1, 5]: 0.1402
- n-fold to virus (Feb2021) [1, 6]: 5.89
- Log10 of Rel to EFC (Feb2021) [1, 7]: -0.8533
- Rel-to EFC (Feb-2021) [1, 8]: 0.1402
- infectivity [1, 9]: medium
- Log10 Inf. rel. to EF-C [1]: -0.8533
- Zeta Count Rate Category ([2]; category 1 / 0, no key given): 1
- Zeta Count Rate / kcps [2, 10]: 144.9 kcps
- Zeta Count Rate / kcps [2, 11]: 144.9 kcps

Substance: KIKIQIAMWQ [JR4]
- infectivity [1, 9]: medium
- Log10 Inf. rel. to EF-C [1]: -0.4109

Substance: IIIK [reference compound]
- Log10 Infection Rel EF-C ([1]; Figure 7B): -1.29
- Inf. rel. EF-C [1, 12]: 0.05
- Count Rate / kcps [2]: 26 kcps

Substance: KIKIQINMWWQ [VH11]
- n-fold to virus (Feb2021) [1, 6]: 134.825
- Log10 of Rel to EFC (Feb2021) [1, 7]: 0.5063
- Rel-to EFC (Feb-2021) [1, 8]: 3.209
- infectivity [1, 9]: high
- infectivity [1, 13]: high
- Log10 Inf. rel. to EF-C [1]: 0.5063
- Zeta Count Rate / kcps [2, 11]: 3893 kcps

Substance: VHDCVNITIK [reference compound]
- Log10 Infection Rel EF-C ([1]; Figure 7B): -0.27
- Inf. rel. EF-C [1, 12]: 0.53
- Abs Infection at 0.26µM ([1]; peptide 0.26 µM, mean of n = 3, Figure 7A): 46666.66667
- Abs Infection at 1.3 µM ([1]; peptide 1.3 µM, mean of n = 3, Figure 7A): 86910
- Abs Infection at 6.5 µM ([1]; peptide 6.5 µM, mean of n = 3, Figure 7A): 136243.3333
- Count Rate / kcps [2]: 12542 kcps

Substance: CRLSLSLS
- Inf. rel. EF-C ([1]; HIV-1 infection relative to EF-C, Fig 23 plot, panels A and B, mean of 3 values): 0.3134
- Inf. rel. EF-C ([1]; HIV-1 infection relative to EF-C, Fig 23 plot, single data point, replicate 2): 0.2799
- Inf. rel. EF-C ([1]; HIV-1 infection relative to EF-C, Fig 23 plot, single data point, replicate 3): 0.2877
- Log10 Infection Rel EF-C ([1]; Figure 6C): -0.5039
- Inf. rel. EF-C [1, 12]: 0.31
- Count Rate / kcps [2]: 1697 kcps
- Log10 Count Rate [2, 14]: 3.23
- Log10 Count Rate [2, 15]: 3.23

Substance: KIKIQIMQWN [VH16]
- infectivity [1, 13]: high
- Log10 Inf. rel. to EF-C [1]: -0.1454

Substance: CKIWIQIY
- Log10 Infection Rel EF-C ([1]; Figure 6C): -0.2415
- Inf. rel. EF-C [1, 12]: 0.57
- Count Rate / kcps [2]: 1842.4 kcps
- Log10 Count Rate [2, 14]: 3.265
- Log10 Count Rate [2, 15]: 3.265

Substance: KFKQFFINMWQ [VH14]
- Absolute Infectivity / RLU /s (Feb2021) ([1]; Feb2021): 14953.33333 RLU /s
- n-fold to virus (Feb2021) [1, 3]: 38.67
- Log10 of Rel to EFC (Feb2021) [1, 4]: -0.03603
- Rel-to EFC (Feb-2021) [1, 5]: 0.9204
- infectivity [1, 13]: high
- Log10 Inf. rel. to EF-C [1]: -0.03603
- Zeta Count Rate Category ([2]; category 1 / 0, no key given): 1
- Zeta Count Rate / kcps [2, 10]: 8996 kcps

Substance: KIKIKIKIWWWW [TM12]
- n-fold to virus (Feb2021) [1, 6]: 24.74
- Log10 of Rel to EFC (Feb2021) [1, 7]: -0.2301
- Rel-to EFC (Feb-2021) [1, 8]: 0.5888
- infectivity [1, 9]: medium
- Log10 Inf. rel. to EF-C [1]: -0.2301
- Zeta Count Rate / kcps [2, 11]: 12420.6 kcps

Substance: KIKIKIKIWW [TM21]
- n-fold to virus (Feb2021) [1, 6]: 15.73
- Log10 of Rel to EFC (Feb2021) [1, 7]: -0.4266
- Rel-to EFC (Feb-2021) [1, 8]: 0.3744
- infectivity [1, 9]: medium
- Log10 Inf. rel. to EF-C [1]: -0.4266
- Zeta Count Rate / kcps [2, 11]: 9436 kcps

Substance: KFKFQFF [TG6]
- Absolute Infectivity / RLU /s (Feb2021) ([1]; Feb2021): 2850 RLU /s
- n-fold to virus (Feb2021) [1, 3]: 5.12
- Log10 of Rel to EFC (Feb2021) [1, 4]: -0.9142
- Rel-to EFC (Feb-2021) [1, 5]: 0.1218
- n-fold to virus (Feb2021) [1, 6]: 5.12
- Log10 of Rel to EFC (Feb2021) [1, 7]: -0.9142
- Rel-to EFC (Feb-2021) [1, 8]: 0.1218
- infectivity [1, 9]: medium
- Rel-to EFC (Feb-2021) [1, 16]: 0.1218
- n-fold to virus (Feb2021) [1, 17]: 5.12
- Log10 Inf. rel. to EF-C [1]: -0.9142
- Log10 of Rel to EFC (Feb2021) [1, 18]: -0.9142

Substance: RGDSGGGGGGKIKIQIC [TM114 / RC17]
- Rel-to EFC ([1]; Fig S8 panels B, D, infectivity enhancement relative to EF-C): 0.8654
- n-fold to virus ([1]; Fig S8 panels B, D, infectivity n-fold relative to virus alone): 36.36
- infectivity [1, 13]: high
- Log10 Inf. rel. to EF-C [1]: -0.0628
- Log Count Rate ([2]; Fig S8 panels A, C, asymmetric log errors): 4.018
- Log Count Rate ([2]; Fig S8 panels B, D): 4.018
- Count Rate ([2]; Fig S8 panels B, D, turbidity, derived count rate of scattered light): 10416.2

Substance: KVKVQVV [TG2]
- Absolute Infectivity / RLU /s (Feb2021) ([1]; Feb2021): 213.3 RLU /s
- n-fold to virus (Feb2021) [1, 3]: 0.3832
- Log10 of Rel to EFC (Feb2021) [1, 4]: -2.04
- Rel-to EFC (Feb-2021) [1, 5]: 0.009121
- infectivity [1, 9]: low
- infectivity [1, 13]: low
- Rel-to EFC (Feb-2021) [1, 16]: 0.009121
- n-fold to virus (Feb2021) [1, 17]: 0.3832
- Log10 Inf. rel. to EF-C [1]: -2.04
- Log10 of Rel to EFC (Feb2021) [1, 18]: -2.04
- Zeta Count Rate Category ([2]; category 1 / 0, no key given): 0
- Zeta Count Rate / kcps ([2]; derived count rate from zeta measurement, mean): 27.73 kcps
- Zeta Count Rate / kcps [2, 10]: 27.73 kcps
- Zeta Count Rate Category ([2]; key not given): 0

Substance: KIKIQIMWNQ [VH15]
- infectivity [1, 9]: medium
- Log10 Inf. rel. to EF-C [1]: -0.2495

Substance: RGDKIKIQINMWQ [MG9a]
- Log10 of Rel to EFC (Feb2021) ([1]; Feb2021, Log10 of infectivity relative to EF-C): -0.1175
- Rel-to EFC (Feb-2021) ([1]; Feb2021, n-fold enhancement relative to EF-C): 0.763
- n-fold to virus (Feb2021) [1, 6]: 32.06
- Log10 of Rel to EFC (Feb2021) [1, 7]: -0.1175
- Rel-to EFC (Feb-2021) [1, 8]: 0.763
- infectivity [1, 9]: high
- infectivity [1, 13]: high
- Log10 Inf. rel. to EF-C [1]: -0.1175
- Zeta Count Rate Category ([2]; category 1 or 0 from count rate, key not given): 1
- Zeta Count Rate / kcps ([2]; derived count rate of scattered light, mean, std deviation in next column): 1554 kcps
- Zeta Count Rate / kcps [2, 11]: 1554 kcps

Substance: KLVFFAK [reference compound]
- Log10 Infection Rel EF-C ([1]; Figure 7B): -1.15
- Inf. rel. EF-C [1, 12]: 0.07
- Count Rate / kcps [2]: 14 kcps
